Earlier results, collected in article PMC3865603 (Cancer chemotherapy and pharmacology, 2011).

Key:
tubulin in PBMCs = settings: ixabepilone RP2D 40 mg/m^2, 1 h after infusion, n = 27; cited from earlier work
patients = settings: cited from earlier work
[1] = cited from earlier work

For `C/C(=C\c1csc(C)n1)[C@@H]1C[C@@H]2O[C@]2(C)CCC[C@H](C)[C@H](O)[C@@H](C)C(=O)C(C)(C)[C@@H](O)CC(=O)N1` [Ixabepilone, ixabepilone], the “mean MBF” value (tubulin in PBMCs) is given as 63% and the DLTs (patients) is given as “neutropenia, neuropathy, and abdominal pain/nausea”.

For `C/C1=C/C[C@@H](/C(C)=C/c2csc(C)n2)OC(=O)C[C@H](O)C(C)(C)C(=O)[C@H](C)[C@@H](O)[C@@H](C)CCC1` [KOS-862, Desoxyepothilone B], the “in vivo activity relative to other epothilones” value [1] is given as “greater activity compared with ixabepilone and patupilone” and the “neurotoxicity in phase II trials” value (patients) is given as “significant neurotoxicity”.

In the case of `C/C(=C\c1csc(C)n1)[C@@H]1C[C@@H]2O[C@]2(C)CCC[C@H](C)[C@H](O)[C@@H](C)C(=O)C(C)(C)[C@@H](O)CC(=O)O1` [patupilone], the DLTs (patients) is given as “diarrhea, peripheral neuropathy, and fatigue”.

In the case of `C=CC[C@H]1C(=O)C(C)(C)[C@@H](O)CC(=O)O[C@H](c2ccc3sc(C)nc3c2)C[C@@H]2O[C@]2(C)CCC[C@H](C)[C@@H]1O` [sagopilone], the DLTs (patients) is given as “peripheral neuropathy, infection, hyponatremia, diarrhea, and central ataxia”.
